# Bridge positions count the residues as written; N and C are the ends. Square brackets hold non-standard residues; d marks the D form. Triazole bridges read from a SMILES are 1,4-linked. Peptide text beside a SMILES is read from it. Lys(N3) = [N-]=[N+]=NCCCC[C@H](N)C(=O)O; dPra = C#CC[C@@H](N)C(=O)O
# How the values were obtained:
# [1] = tested on: S. aureus ATCC 25923; type: cell-based, Staphylococcus aureus
# Description: (§1) The antimicrobial activity of peptides 9–26 was assessed against a range of reference bacterial strains such as S. aureus ATCC 25923, Staphylococcus epidermidis ATCC 12228, Bacillus megaterium Bm11, E. coli ATCC 25922, P. aeruginosa ATCC 27853, and A. baumannii ATCC 19606 by the broth microdilution assay to determine the minimal growth inhibitory concentration (MIC, Table 1).[59] First, we evaluated the effects produced by the lactam bridge between Lys and Glu residues placed at different positions along the peptide sequence of reference 9. […] When the i,i+7 cyclization strategy was applied (20–23), a dramatic decrease of bacterial inhibition activity was observed. Specifically, the peptides 20, 22, and 23 only affected the microbial growth of the Gram-positive B. megaterium Bm11, at 12.5 μM. […] Peptide 25, which differs from 9 by the presence of an olefin bridge rather than lactam one, dramatically lost the activity (MIC > 100 μM) vs both Gram-positive and Gram-negative strains.
# (§2) The determination of MICs was conducted as previously reported.[61] Aliquots of 50 μL of bacterial culture appropriately diluted were added to each well of a 96-well plate to reach a final cell density of 1 × 10^6 CFU/mL and a final peptide concentration ranging from 100 to 0.78 μM (final volume 100 μL).
# [2] = tested on: S. epidermidis ATCC 12228; type: cell-based, Staphylococcus epidermidis
# Description: as §1, §2
# [3] = tested on: B. megaterium Bm11; type: cell-based, Bacillus megaterium
# Description: as §1, §2
# [4] = tested on: E. coli ATCC 25922; type: cell-based, Escherichia coli
# Description: as §1, §2
# [5] = tested on: P. aeruginosa ATCC 27853; type: cell-based, Pseudomonas aeruginosa
# Description: as §1, §2
# [6] = tested on: A. baumannii ATCC 19606; type: cell-based, Acinetobacter baumannii
# Description: as §1, §2
Structure (SMILES),MIC S. aureus ATCC 25923 [1] [µM],MIC S. epidermidis ATCC 12228 [2] [µM],MIC B. megaterium Bm11 [3] [µM],MIC E. coli ATCC 25922 [4] [µM],MIC P. aeruginosa ATCC 27853 [5] [µM],MIC A. baumannii ATCC 19606 [6] [µM]
CC[C@H](C)[C@@H]1NC(=O)[C@H](CCCNC(=N)N)NC(=O)CNC(=O)[C@H](NC(=O)[C@H](Cc2ccccc2)NC(=O)[C@H](CCCCN)NC(=O)[C@H](CO)NC(=O)[C@H](Cc2ccccc2)NC(=O)[C@H](Cc2c[nH]c3ccccc23)NC(=O)[C@@H]2CCCN2C(=O)[C@@H](NC(=O)[C@@H](N)Cc2ccccc2)C(C)C)CCCCNC(=O)CC[C@@H](C(N)=O)NC1=O [compound 10],>100,>100,50,>100,>100,>100
CC(C)C[C@H](NC(=O)[C@@H]1CCC(=O)NCCCC[C@H](NC(=O)[C@H](CCCCN)NC(=O)[C@H](CO)NC(=O)[C@H](Cc2ccccc2)NC(=O)[C@H](Cc2c[nH]c3ccccc23)NC(=O)[C@@H]2CCCN2C(=O)[C@@H](NC(=O)[C@@H](N)Cc2ccccc2)C(C)C)C(=O)N[C@H](CC(C)C)C(=O)NCC(=O)N[C@@H](CCCNC(=N)N)C(=O)N1)C(N)=O [compound 11] (H-FVPWFSKK[dL]GREL-NH2; lactam 8-12),>100,>100,50,>100,>100,>100

# Now from value to molecule:
MIC S. aureus ATCC 25923 [1] [µM],MIC S. epidermidis ATCC 12228 [2] [µM],MIC B. megaterium Bm11 [3] [µM],MIC E. coli ATCC 25922 [4] [µM],MIC P. aeruginosa ATCC 27853 [5] [µM],MIC A. baumannii ATCC 19606 [6] [µM],Structure (SMILES)
>100,>100,100,>100,>100,>100,CC[C@H](C)[C@H](NC(=O)[C@H](CCCNC(=N)N)NC(=O)CNC(=O)[C@H]1CCC(=O)NCCCC[C@H](NC(=O)[C@H](Cc2c[nH]c3ccccc23)NC(=O)[C@@H]2CCCN2C(=O)[C@@H](NC(=O)[C@@H](N)Cc2ccccc2)C(C)C)C(=O)N[C@@H](CO)C(=O)N[C@@H](CCCCN)C(=O)N[C@@H](Cc2ccccc2)C(=O)N1)C(=O)N[C@@H](CC(C)C)C(N)=O [compound 13] (H-FVPWKSKF[dE]GRIL-NH2; lactam 5-9)
>100,>100,>100,>100,>100,>100,CC[C@H](C)[C@H](NC(=O)[C@H](CCCNC(=N)N)NC(=O)CNC(=O)[C@@H](CC(C)C)NC(=O)[C@@H]1CCC(=O)NCCCC[C@H](NC(=O)[C@@H]2CCCN2C(=O)[C@@H](NC(=O)[C@@H](N)Cc2ccccc2)C(C)C)C(=O)N[C@@H](Cc2ccccc2)C(=O)N[C@@H](CO)C(=O)N[C@@H](CCCCN)C(=O)N1)C(=O)N[C@@H](CC(C)C)C(N)=O [compound 14] (H-FVPKFSKE[dL]GRIL-NH2; lactam 4-8)
>100,>100,25,>100,>100,100,CC[C@H](C)[C@@H]1NC(=O)[C@H](CCCNC(=N)N)NC(=O)CNC(=O)[C@H](NC(=O)[C@H](Cc2ccccc2)NC(=O)[C@H](CCCCN)NC(=O)[C@H](CO)NC(=O)[C@H](Cc2ccccc2)NC(=O)[C@H](Cc2c[nH]c3ccccc23)NC(=O)[C@@H]2CCCN2C(=O)[C@@H](NC(=O)[C@@H](N)Cc2ccccc2)C(C)C)Cc2cn(nn2)CCCC[C@@H](C(N)=O)NC1=O [compound 15] (H-FVPWFSKF[dPra]GRI[Lys(N3)]-NH2; triazole 9-13)
